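Five compound concentrations were applied to cells in 96-well plates for 48 hours; endpoints were derived by simple linear interpolation of the resulting dose-response curve. The concentration for full growth arrest is given as TGI.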
Legend:
Assay in all cases: DTP human tumour cell line panel, 48 h
[1] = tested on: HS 578T breast
[2] = tested on: SN12C renal
[3] = tested on: HOP-92 NSCLC
[4] = tested on: HCC-2998 colon
[5] = tested on: UACC-257 melanoma
[6] = tested on: SK-OV-3 ovarian
[7] = tested on: K-562 leukemia
[8] = tested on: UACC-62 melanoma
[9] = tested on: HCT-15 colon
[10] = tested on: HOP-62 NSCLC
[11] = tested on: NCI-H23 lung
[12] = tested on: OVCAR-8 ovarian
[13] = tested on: SR leukemia
[14] = tested on: MCF7 breast
[15] = tested on: SF-268 CNS
[16] = tested on: MOLT-4 leukemia
[17] = tested on: MDA-MB-435
[18] = tested on: NCI/ADR-RES ovarian
[19] = tested on: IGROV1 ovarian
[20] = tested on: HL-60(TB) leukemia
[21] = tested on: OVCAR-5 ovarian
[22] = tested on: SK-MEL-2 melanoma
[23] = tested on: MDA-N
[24] = tested on: A498 renal
[25] = tested on: BT-549 breast
[26] = tested on: MALME-3M melanoma
[27] = tested on: HT29 colon
[28] = tested on: TK-10 renal
[29] = tested on: SW-620 colon
[30] = tested on: KM12 colon
[31] = tested on: NCI-H226 lung
[32] = tested on: CAKI-1 renal
[33] = tested on: SK-MEL-28 melanoma
[34] = tested on: LOX IMVI melanoma
[35] = tested on: RXF 393 renal
[36] = tested on: T-47D breast
[37] = tested on: NCI-H522 lung
[38] = tested on: A549 NSCLC
[39] = tested on: PC-3 prostate
[40] = tested on: HCT-116 colon
[41] = tested on: SNB-19 CNS
[42] = tested on: SK-MEL-5 melanoma
[43] = tested on: NCI-H460 lung
[44] = tested on: EKVX NSCLC
[45] = tested on: M14 melanoma
[46] = tested on: ACHN renal
[47] = tested on: SF-295 CNS
[48] = tested on: OVCAR-3 ovarian
[49] = tested on: OVCAR-4 ovarian
[50] = tested on: 786-0 renal
[51] = tested on: DU-145 prostate
[52] = tested on: UO-31 renal
[53] = tested on: RPMI-8226 leukemia
[54] = tested on: SF-539 CNS
[55] = tested on: COLO 205 colon
[56] = tested on: CCRF-CEM leukemia
[57] = tested on: U251 CNS
[58] = tested on: SNB-75 CNS

## CC(=O)Oc1ccc2[nH]c3c(C)c4cccc-4ccc3c2c1
[1]
  TGI: 7.74 µM
[2]
  TGI: 4.49 µM
[3]
  TGI: 4.17 µM
[4]
  TGI: 5.05 µM
[5]
  TGI: 4.07 µM
[6]
  TGI: 4.28 µM
[7]
  TGI: 11.5 µM
[8]
  TGI: 3.42 µM
[9]
  TGI: 5 µM
[10]
  TGI: 4.8 µM
[11]
  TGI: 3.96 µM
[12]
  TGI: 4.63 µM
[13]
  TGI: 34.6 µM
[14]
  TGI: 10.7 µM
[15]
  TGI: 4.19 µM
[16]
  TGI: 9.82 µM
[17]
  TGI: 3.81 µM
[18]
  TGI: 5.33 µM
[19]
  TGI: 3.2 µM
[20]
  TGI: 6.87 µM
[21]
  TGI: 4.14 µM
[22]
  TGI: 3.66 µM
[23]
  TGI: 4.93 µM
[24]
  TGI: 5.53 µM
[25]
  TGI: 5.37 µM
[26]
  TGI: 3.63 µM
[27]
  TGI: 4.18 µM
[28]
  TGI: 3.57 µM
[29]
  TGI: 10.7 µM
[30]
  TGI: 5.47 µM
[31]
  TGI: 3.11 µM
[32]
  TGI: 3.41 µM
[33]
  TGI: 4.47 µM
[34]
  TGI: 4.4 µM
[35]
  TGI: 3.78 µM
[36]
  TGI: 8.22 µM
[37]
  TGI: 3.86 µM
[38]
  TGI: 4.7 µM
[39]
  TGI: 3.37 µM
[40]
  TGI: 4.31 µM
[41]
  TGI: 3.69 µM
[42]
  TGI: 3.95 µM
[43]
  TGI: 10.3 µM
[44]
  TGI: 4.21 µM
[45]
  TGI: 4.21 µM
[46]
  TGI: 3.33 µM
[47]
  TGI: 4.32 µM
[48]
  TGI: 3.64 µM
[49]
  TGI: 3.5 µM
[50]
  TGI: 3.36 µM
[51]
  TGI: 12.7 µM
[52]
  TGI: 3.19 µM
[53]
  TGI: 11 µM

## COc1cc(/C=C2/SC(c3ccccc3)N(c3cccc(NC(C)=O)c3)C2=O)cc(OC)c1OC (stereo not drawn)
[1]
  TGI: > 100 µM
[2]
  TGI: > 100 µM
[3]
  TGI: > 100 µM
[4]
  TGI: > 100 µM
[5]
  TGI: > 100 µM
[6]
  TGI: > 100 µM
[7]
  TGI: > 100 µM
[8]
  TGI: > 100 µM
[9]
  TGI: > 100 µM
[10]
  TGI: > 100 µM
[11]
  TGI: > 100 µM
[12]
  TGI: > 100 µM
[13]
  TGI: > 100 µM
[14]
  TGI: > 100 µM
[15]
  TGI: > 100 µM
[16]
  TGI: > 100 µM
[17]
  TGI: > 100 µM
[18]
  TGI: > 100 µM
[20]
  TGI: > 100 µM
[21]
  TGI: > 100 µM
[23]
  TGI: > 100 µM
[24]
  TGI: > 100 µM
[25]
  TGI: > 100 µM
[26]
  TGI: > 100 µM
[27]
  TGI: > 100 µM
[28]
  TGI: > 100 µM
[54]
  TGI: > 100 µM
[29]
  TGI: > 100 µM
[30]
  TGI: > 100 µM
[31]
  TGI: > 100 µM
[32]
  TGI: > 100 µM
[33]
  TGI: > 100 µM
[34]
  TGI: > 100 µM
[35]
  TGI: > 100 µM
[36]
  TGI: > 100 µM
[37]
  TGI: 73.6 µM
[38]
  TGI: > 100 µM
[40]
  TGI: > 100 µM
[41]
  TGI: > 100 µM
[42]
  TGI: > 100 µM
[43]
  TGI: > 100 µM
[44]
  TGI: > 100 µM
[55]
  TGI: > 100 µM
[45]
  TGI: > 100 µM
[46]
  TGI: > 100 µM
[47]
  TGI: > 100 µM
[48]
  TGI: > 100 µM
[49]
  TGI: > 100 µM
[50]
  TGI: > 100 µM
[51]
  TGI: > 100 µM
[52]
  TGI: > 100 µM
[53]
  TGI: > 100 µM

## COc1cc(N2C(=O)C(=O)C3(CCCCC3)C2=O)cc(OC)c1OC
[2]
  TGI: > 100 µM
[4]
  TGI: > 100 µM
[5]
  TGI: > 100 µM
[6]
  TGI: > 100 µM
[7]
  TGI: > 100 µM
[8]
  TGI: > 100 µM
[9]
  TGI: > 100 µM
[10]
  TGI: > 100 µM
[11]
  TGI: > 100 µM
[12]
  TGI: > 100 µM
[13]
  TGI: > 100 µM
[14]
  TGI: > 100 µM
[15]
  TGI: > 100 µM
[16]
  TGI: > 100 µM
[17]
  TGI: > 100 µM
[18]
  TGI: > 100 µM
[20]
  TGI: > 100 µM
[21]
  TGI: > 100 µM
[22]
  TGI: > 100 µM
[23]
  TGI: > 100 µM
[25]
  TGI: > 100 µM
[26]
  TGI: > 100 µM
[27]
  TGI: > 100 µM
[28]
  TGI: > 100 µM
[54]
  TGI: > 100 µM
[29]
  TGI: > 100 µM
[30]
  TGI: > 100 µM
[31]
  TGI: > 100 µM
[32]
  TGI: > 100 µM
[33]
  TGI: > 100 µM
[34]
  TGI: > 100 µM
[35]
  TGI: > 100 µM
[36]
  TGI: > 100 µM
[37]
  TGI: > 100 µM
[38]
  TGI: > 100 µM
[39]
  TGI: > 100 µM
[40]
  TGI: > 100 µM
[41]
  TGI: > 100 µM
[42]
  TGI: > 100 µM
[56]
  TGI: > 100 µM
[44]
  TGI: > 100 µM
[55]
  TGI: > 100 µM
[45]
  TGI: > 100 µM
[46]
  TGI: > 100 µM
[47]
  TGI: > 100 µM
[48]
  TGI: > 100 µM
[57]
  TGI: > 100 µM
[49]
  TGI: > 100 µM
[50]
  TGI: > 100 µM
[51]
  TGI: > 100 µM
[58]
  TGI: > 100 µM
[52]
  TGI: > 100 µM
[53]
  TGI: > 100 µM
